Biological target: ATP-dependent translocase ABCB1 (Homo sapiens, UniProt P08183)
Test: TP_TRANSPORTER: transepithelial transport of cyclosporin A in Caco-2 cells
Assay type: functional, cell-based

Chain of ATP-dependent translocase ABCB1 (P08183 whole entry): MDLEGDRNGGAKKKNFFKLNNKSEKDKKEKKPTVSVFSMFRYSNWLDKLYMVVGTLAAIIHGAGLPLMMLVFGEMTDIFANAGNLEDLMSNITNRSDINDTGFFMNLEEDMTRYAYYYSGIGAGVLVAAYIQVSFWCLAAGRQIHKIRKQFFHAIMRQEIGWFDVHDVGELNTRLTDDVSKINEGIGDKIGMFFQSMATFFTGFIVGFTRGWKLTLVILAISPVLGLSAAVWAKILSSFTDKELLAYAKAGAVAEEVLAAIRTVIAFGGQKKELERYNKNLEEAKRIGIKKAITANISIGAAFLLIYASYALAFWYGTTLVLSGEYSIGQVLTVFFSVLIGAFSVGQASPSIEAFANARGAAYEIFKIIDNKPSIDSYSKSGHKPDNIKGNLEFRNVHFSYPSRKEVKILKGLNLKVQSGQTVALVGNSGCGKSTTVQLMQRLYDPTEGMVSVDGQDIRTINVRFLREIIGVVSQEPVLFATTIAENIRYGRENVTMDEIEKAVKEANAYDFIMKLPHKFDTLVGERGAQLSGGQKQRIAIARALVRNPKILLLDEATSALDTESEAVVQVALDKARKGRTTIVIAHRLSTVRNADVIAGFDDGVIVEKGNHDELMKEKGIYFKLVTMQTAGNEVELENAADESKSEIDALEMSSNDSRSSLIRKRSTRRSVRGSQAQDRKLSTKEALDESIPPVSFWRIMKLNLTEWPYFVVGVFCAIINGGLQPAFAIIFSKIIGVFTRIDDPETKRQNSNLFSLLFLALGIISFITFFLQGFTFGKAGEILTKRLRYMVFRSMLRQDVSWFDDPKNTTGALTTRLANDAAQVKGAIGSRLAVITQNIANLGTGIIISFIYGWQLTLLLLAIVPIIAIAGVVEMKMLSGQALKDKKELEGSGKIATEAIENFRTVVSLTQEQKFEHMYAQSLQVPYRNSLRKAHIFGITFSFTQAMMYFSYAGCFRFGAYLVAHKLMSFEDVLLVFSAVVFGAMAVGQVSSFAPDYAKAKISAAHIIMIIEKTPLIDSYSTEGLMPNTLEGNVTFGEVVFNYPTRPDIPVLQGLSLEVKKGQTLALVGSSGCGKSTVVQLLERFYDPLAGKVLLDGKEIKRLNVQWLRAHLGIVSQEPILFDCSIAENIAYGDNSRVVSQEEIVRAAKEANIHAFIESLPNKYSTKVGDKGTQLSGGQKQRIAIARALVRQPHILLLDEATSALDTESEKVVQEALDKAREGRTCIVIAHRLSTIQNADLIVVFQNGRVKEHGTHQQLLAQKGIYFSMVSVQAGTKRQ

Row | Activity | Sequence
1 | inhibitor [+] | CREMOPHOR EL
2 | inhibitor [+] | CREMOPHOR RH 40

From ChEMBL document CHEMBL2074432, “Human jejunal permeability of cyclosporin A: influence of surfactants on P-glycoprotein efflux in Caco-2 cells” (Pharm Res, 2003)
